According to patent US8367121B2, “Nutraceutical agent for attenuating the neurodegenerative process associated with Parkinson's disease” (Florida A & M University, priority 2005, dated 2013):
Where two headings read alike, the source gives them in different places.

Columns and labels:
MPP+ toxicity = MPP+ toxicity in vitro (loss of ATP / cell death); type: cell-based; conditions: for protection against MPP+ toxicity: in vitro
[1] = Reduce/chelate and complex iron; conditions: as demonstrated in our lab
[2] = Non-enzymatic DA oxidation to melanized pigments in buffered non-acid solution exposed to atmosphere; conditions: neutral pH; data not published
From the text: 2. DA AUTOXIDATION—The second major route for DA oxidation is non-enzymatic autoxidation in the presence of H2O2, ROS and metals (Fe^+2, Cu^+2, and Mn^+2) (Montgomery et al., Toxicology. 1995 Mar. 31; 97(1-3):3-9; Sayre et al., 1999 Bio-inorganic Chemistry 3:220-225). Autoxidation of DA can render formation of 6-OHDA (a potent neurotoxin) and O2.^−, of which the later if in proximity to nitric oxide (NO) can react to form ONOO—. Peroxynitrite can then re-oxidize DA, deplete available reduced glutathione/ascorbate, incur a substantial loss of endogenous GSH-peroxidase function and destroy the natural ability of GSH to act as an antioxidant, inactivate toxic DA o-semiquinones or ONOO—(Blum et al., 2001; Antunes et al., Toxicology. 2005 Mar. 15; 208(2):207-12). Likewise, the neurological damage associated with PD corresponds to depletion of SNc GSH as consistently evidenced in various studies (Ebadi et al, Prog Neurobiol. 1996 January; 48(1):1-19) and a reduction of GSH (ie. γ-glutamylcysteine. synthetase inhibitor) renders SNc neurons extremely vulnerable to the toxic effects of MPTP and 6-OHDA (Bharath et al., Biochem Pharmacol. 2002 September; 64(5-6):1037-48). In contrast, administration of thiol antioxidants such as dithioreitol, GSH and NAC (which block the autoxidation of DA), prevent MPTP induced toxicity in mice (Annepu and Ravindranath, Neurosci Lett. 2000 Aug. 11; 289(3):209-12; Bahat-Stroomza et al., Eur J Neurosci. 2005 February; 21(3):637-46). For these reasons, the formulation will include substances that prevent non-enzymatic DA oxidation herein classified under “DA-AUTOXIDATION (−)”. The compounds chosen were based on their propensity to block DA oxidation to melanized pigments in buffered non-acid solution exposed to atmosphere and corresponding production of ROS upon exposure of O2 (data not published). Of approximately 100 food based compounds tested in our lab, the findings indicate a block of DA oxidation at neutral pH by PY, β-CAROTENE (*), NAC (*), GSH (*), VITAMIN C (*). […] The addition of ascorbic acid as a DA-AUTOXIDATION (−) should be limited given its negative counter-indication with iron and 6-OHDA (Mendez-Alvarez et al., Free Radic Biol Med. 2001 Oct. 15; 31(8):986-98). In contrast, ample concentration of thiol substances should be added to the formulation as they are non-toxic, attenuate pathological effects of 6-OHDA, ONOO— and block the formation of DA o-semiquinone neurotoxic radicals (Asanuma et al., Acta Med. Okayama 2004: 58 (5) 221-233).

[3] = Non-enzymatic H2O2 scavenging
6-OHDA toxicity [4] = assay: 6-OHDA toxicity in vitro; type: cell-based
H2O2 toxicity = H2O2 toxicity in vitro; type: cell-based
From the text: (§1) With that, overcoming the initial deficit imposed by PD toxins such as MPP+ are possible with non-glucose intermediates that are capable of sustaining ATP production through substrate level phosphorylation. These compounds should protect against cell death by MPP+, herein also classified under “ANAEROBIC (+)”. […] Agents capable of mediating positive effects on PK/LDH should in theory offset the metabolic vulnerability imposed by the rise in lactate/pyruvate, nicotinamide adenine dinucleotide (NAD)/nicotinamide adenine dinucleotide reduced (NADH) and NADP/NADPH ratios that occur during hypoglycemia and neurological damage (Auer RN. Metab Brain Dis. 2004 December; 19(3-4):169-75). For this reason, the first component and the base of this nutraceutical formulation are one or more of PYRUVIC ACID (*) (PY), […] ACID (SA)* and OXALOACETATE (*) (OA) as well as their corresponding molecular derivatives, analogues, esters or salts. […] On the other hand, PY can readily enter the brain, serve as a useful substrate for glycolysis, the Krebs cycle and the GABA shunt (Gonzalez et al., J Neurochem. 2005 October; 95(1):284-93) with capability to protect ergogenic failure associated with ischemic stroke and heart disease (Lee et al., J Neurosci. 2001 Oct. 15; 21(20):RC171; Hermann et al., Eur J Heart Fail. 2004 Mar. 1; 6(2):213-8).

LDH = assay: Substrate for lactic acid dehydrogenase; type: biochemical
From the text: as §1

complex IV = assay: Mitochondrial complex IV function; type: biochemical
complex II = assay: Mitochondrial complex II function; type: biochemical
[5] = system: mitochondrial respiration; assay: Mitochondrial O2 consumption / respiration; type: biochemical
complex I = assay: Mitochondrial complex I function
6-OHDA toxicity [6] = conditions: Kabuto et al., Neurochem Res. 2005; cited from earlier work

In the case of `Cc1cc2nc3c(=O)[nH]c(=O)nc-3n(C[C@H](O)[C@H](O)[C@H](O)CO)c2cc1C` [riboflavin, RIBOFLAVIN], the “protection against MPP+ toxicity” value (MPP+ toxicity) is reported as “exacerbating”.
With `O=c1c(O)c(-c2ccc(O)c(O)c2)oc2cc(O)cc(O)c12` [quercetin] the “reduce/chelate and complex iron” value [1] was “most powerful”.
For `Oc1ccc2c(c1)OCO2` [SESAMOL], the “reduce/chelate and complex iron” value [1] was “most powerful”.
For `O=C(CO)[C@@H](O)[C@H](O)[C@H](O)CO` [FRUCTOSE], the “protection against MPP+ toxicity” value (MPP+ toxicity) was “effective”.
In the case of `CC1=C(/C=C/C(C)=C/C=C/C(C)=C/C=C/C=C(C)/C=C/C=C(C)/C=C/C2=C(C)CCCC2(C)C)C(C)(C)CCC1` [β-CAROTENE], the “block of DA oxidation” value [2] is reported as “block” and the “scavenge H2O2” value [3] is reported as “scavenge”.
In the case of `Oc1ccc(C=Cc2cc(O)cc(O)c2)cc1` [RESVERATROL], the “protection against MPP+ toxicity” value (MPP+ toxicity) is reported as “effective”.
With NARINGEN the “protection against MPP+ toxicity” value (MPP+ toxicity) was “effective”.
For `O=c1c(O)c(-c2ccc(O)cc2O)oc2cc(O)cc(O)c12` [MORIN], the “reduce/chelate and complex iron” value [1] was “most powerful”.
In the case of “CYTOCHROME C: cytochrome C, combined with an H2O2 antioxidant to detoxify 6-OHDA”, the “protection against / antagonism of 6-OHDA toxicity” value (“protection against / antagonism” for short) (6-OHDA toxicity [4]) is reported as “directly antagonize”.
In the case of `O=C(COP(=O)(O)O)[C@@H](O)[C@H](O)[C@H](O)COP(=O)(O)O` [FRUCTOSE 1,6 BISPHOSPHATE], the “protection against MPP+ toxicity” value (MPP+ toxicity) is reported as “effective”.
In the case of `CC(=O)C(=O)O` [PY, PYRUVIC ACID], the “protection against MPP+ toxicity” value (MPP+ toxicity) is reported as “protect”, the “protection against / antagonism” value (6-OHDA toxicity [4]) is reported as “protect” and the “protection against / antagonism” value (6-OHDA toxicity [4]; listed as pyruvate) is reported as “directly antagonize”. The “protection against H2O2 toxicity” value (H2O2 toxicity) was “protect”, the “substrates for LDH” value (LDH) was “exceptional substrates for LDH” and the “block of DA oxidation” value [2] was “block”.
With `CC1=CC(=O)C(C(C)C)=CC1=O` [THYMOQUINONE] the “protection against MPP+ toxicity” value (MPP+ toxicity) was “effective”.
For `COC1=C(OC)C(=O)C(C/C=C(\C)CC/C=C(\C)CC/C=C(\C)CC/C=C(\C)CC/C=C(\C)CC/C=C(\C)CC/C=C(\C)CC/C=C(\C)CC/C=C(\C)CCC=C(C)C)=C(C)C1=O` [coenzyme Q10], the “protection against MPP+ toxicity” value (MPP+ toxicity) was “no effects”, the “effects on complex IV function” value (complex IV) was “little to no effects” and the “potentiation of complex II function” value (complex II) was “mild potentiator”. The “effects on mitochondrial O2 consumption / mitochondrial respiration as a whole” value [5] was “no effects” and the “effects on complex I function” value (complex I) was “little to no effects”.
For `COc1cc(CCC(C)=O)ccc1O` [zingerone], the “antagonism of 6-OHDA toxicity” value (6-OHDA toxicity [6]) is given as “directly antagonize”.
In the case of `N[C@@H](CCC(=O)N[C@@H](CS)C(=O)NCC(=O)O)C(=O)O` [GSH, reduced glutathione], the “protection against / antagonism” value (6-OHDA toxicity [4]) is reported as “directly antagonize” and the “block of DA oxidation” value [2] is reported as “block”.
For `O=C(O)CCC(=O)O` [SA, SUCCINIC ACID], the “fuel anaerobic glycolysis in the presence of MPP+” value (MPP+ toxicity; data not published) was “great propensity”.
In the case of `C=C(OP(=O)(O)O)C(=O)O` [PHOSPHOENOLPYRUVATE], the “protection against MPP+ toxicity” value (MPP+ toxicity) is reported as “effective”.
In the case of `N[C@@H](Cc1c[nH]c2ccccc12)C(=O)O` [TRYPTOPHAN], the “protection against MPP+ toxicity” value (MPP+ toxicity) is reported as “effective”.
With Vitamin E the “block of DA oxidation” value [2] was “lack of effects” and the “scavenge H2O2” value [3] was “lack of effects”.
For `NC(=O)C1=CN([C@@H]2O[C@H](COP(=O)(O)OP(=O)(O)OC[C@H]3O[C@@H](n4cnc5c(N)ncnc54)[C@H](O)[C@@H]3O)[C@@H](O)[C@H]2O)C=CC1` [NADH, reduced nicotinamide adenine dinucleotide], the “protection against MPP+ toxicity” value (MPP+ toxicity) was “protect”.
For `O=C(O[C@@H]1Cc2c(O)cc(O)cc2O[C@@H]1c1cc(O)c(O)c(O)c1)c1cc(O)c(O)c(O)c1` [EGCG, (−)-Epigallocatechin-3-gallate], the “protection against MPP+ toxicity” value (MPP+ toxicity) was “effective”.
In the case of `COc1cc(/C=C/C(=O)O)ccc1O` [FERULIC ACID], the “reduce/chelate and complex iron” value [1] is reported as “most powerful”.
With `O=c1oc2c(O)c(O)cc3c(=O)oc4c(O)c(O)cc1c4c23` [ellagic acid] the “reduce/chelate and complex iron” value [1] was “most powerful”.
With `O=C(O)/C=C/c1ccc(O)c(O)c1` [caffeic acid] the “reduce/chelate and complex iron” value [1] was “most powerful”.
With `N[C@@H](Cc1c[nH]cn1)C(=O)O` [histidine] the “protection against / antagonism” value (6-OHDA toxicity [4]) was “mild protection”.
In the case of `CC(=O)O[C@H](CC(=O)[O-])C[N+](C)(C)C` [ACETYL-L-CARNITINE], the “protection against MPP+ toxicity” value (MPP+ toxicity) is reported as “effective”.
In the case of `CC(=O)N[C@@H](CS)C(=O)O` [NAC, N-acetyl-L-cysteine], the “protection against / antagonism” value (6-OHDA toxicity [4]) is reported as “directly antagonize” and the “block of DA oxidation” value [2] is reported as “block”.
For `O=C1O[C@H]([C@@H](O)CO)C(O)=C1O` [VITAMIN C, ascorbic acid], the “block of DA oxidation” value [2] was “block”.
With `CN1C(C(=O)Nc2ccccn2)=C(O)c2ccccc2S1(=O)=O` [PIROXICAM, reference compound] the “protection against MPP+ toxicity” value (MPP+ toxicity) was “effective”.
